From ChEMBL document CHEMBL1124978, “Direct C-glycosylation of guanine analogues: the synthesis and antiviral activity of certain 7- and 9-deazaguanine C-nucleosides” (1990)

Tests used:
Assay type in all cases: functional
Conditions in all cases: route intraperitoneal
Mus musculus [1] = experiment: Tested against Forest virus infection in mice at dose 100 mg/kg administered intraperitoneally; 7/12(58)
Mus musculus [2] = experiment: Tested against Forest virus infection in mice at dose 100 mg/kg administered intraperitoneally
Mus musculus [3] = experiment: Tested against Forest virus infection in mice at dose 100 mg/kg administered intraperitoneally; 1/12(8)
Mus musculus [4] = experiment: Tested against Forest virus infection in mice at dose 100 mg/kg administered intraperitoneally; 10/12(83)
Mus musculus [5] = experiment: Tested against Forest virus infection in mice at dose 100 mg/kg administered intraperitoneally; 0/12(0)
Mus musculus [6] = experiment: Tested against Forest virus infection in mice at dose 100 mg/kg administered intraperitoneally in experiment 3; 11/12(92)
Mus musculus [7] = experiment: Tested against Forest virus infection in mice at dose 100 mg/kg administered intraperitoneally in experiment 1; 9/12(75)
Mus musculus [8] = experiment: Tested against Forest virus infection in mice at dose 100 mg/kg administered intraperitoneally in experiment 2; 11/12(92)
Mus musculus [9] = experiment: Tested against Forest virus infection in mice at dose 100 mg/kg administered intraperitoneally in experiment 3
Mus musculus [10] = experiment: Tested against Forest virus infection in mice at dose 100 mg/kg administered intraperitoneally in experiment 1
Mus musculus [11] = experiment: Tested against Forest virus infection in mice at dose 100 mg/kg administered intraperitoneally in experiment 2

With `CN1C(Br)=C([C@@H]2O[C@H](CO)[C@@H](O)[C@H]2O)C2=NC(N)=NC(=O)C21` (stereo partly specified) the Survivors / total (Mus musculus [1]) was 7% and the Mean survival time (Mus musculus [2]) was 7 days.
With `CN1C=C([C@@H]2O[C@H](CO)[C@@H](O)[C@H]2O)C2=NC(N)=NC(=O)C21` (stereo partly specified) the Mean survival time (Mus musculus [2]) was 8.1 days and the Survivors / total (Mus musculus [3]) was 8.33%.
Compound `CN1C(Cl)=C([C@@H]2O[C@H](CO)[C@@H](O)[C@H]2O)C2=NC(N)=NC(=O)C21` (stereo partly specified) has a Survivors / total (Mus musculus [4]) of 10% and a Mean survival time (Mus musculus [2]) of 11 days.
`CC1=C([C@@H]2O[C@H](CO)[C@@H](O)[C@H]2O)C2C(=O)N=C(N)N=C2N1` (stereo partly specified) gave a Mean survival time (Mus musculus [2]) of 7.2 days and a Survivors / total (Mus musculus [5]) of 0%.
Work on `NC1=NC(=O)C2NC=C([C@@H]3O[C@H](CO)[C@@H](O)[C@H]3O)C2=N1` (stereo partly specified) yielded a Mean survival time (Mus musculus [2]) of 7.3 days and a Survivors / total (Mus musculus [3]) of 8.33%.
For `Nc1nc(=O)c2sc(=O)n([C@@H]3O[C@H](CO)[C@@H](O)[C@H]3O)c2[nH]1` [ISATORIBINE], the Survivors / total (Mus musculus [6]) was 91.7%, the Survivors / total (Mus musculus [7]) was 75% and the Survivors / total (Mus musculus [8]) was 91.7%. It also gave a Mean survival time (Mus musculus [9]) of 9 days, a Mean survival time (Mus musculus [10]) of 8.3 days and a Mean survival time (Mus musculus [11]) of 10 days.
